≈ marks a conversion by molar mass, not a printed value.
Tests used:
[1] = MTT cytotoxicity against raw macrophages; assay type: cell-based, albino rats; settings: albino, rat; for viability at 24 h, 1 µM / viability at 24 h, 10 µM / viability at 24 h, 50 µM / viability at 24 h, 100 µM: peritoneal macrophages (raw macrophages), raw macrophages, MTT, read-out: % Cell Viability; for IC50 at 24 h: primary peritoneal macrophages, mean ± SEM, n = 3
Procedure: The % cell viability of the synthetic library was evaluated in vitro by measuring the mitochondrial dehydrogenase activity (MTT test) on raw macrophages.
The cytotoxic potential was assessed by using an MTT 3-(4,5-dimethyl thiazole-2-yl)-2,5- diphenyl tetrazolium bromide assay. Briefly, macrophages were extracted from the peritoneal cavity of albino rats and plated at a density of 1 × 10^6 per well in a 96-well plate and incubated in a 5% CO2 incubator at 37 °C for 24 h. The cells were treated with various concentrations of the test compounds (100 µM, 50 µM, 10 µM and 1 µM) or vehicle alone. The test compounds were first dissolved in DMSO to make a 100 mM stock solution and then further dilutions were made from this stock solution. After 24 h of incubation, 20 µL of MTT (1 mg/mL in normal saline) was added into each well and incubated under the same conditions for 2 h. Mitochondrial succinate dehydrogenase converted MTT in live cells into purple formazan crystals. The formazan crystals were then solubilized in 100 µL DMSO, and the absorbance was measured at 570 nm. The % cell viability was calculated by the following formula; % cell viability = (abssample − absblank)/(abscontrol − absblank) × 100

α-amylase enzyme = test: α-Amylase enzyme inhibitory assay; assay type: biochemical; settings: 200 µg/mL
Procedure: An in vitro α-amylase enzyme inhibitory assay was performed by the standard protocol. Four milligrams per 1 mL of sample was prepared in DMSO. In each well of a 96-well plate, synthetic compounds were added to a final concentration of 200 µg/mL. To this, 15 μL phosphate buffer, […] α-amylase enzyme and 40 μL starch solution were added stepwise. The microplate was incubated at 50 °C for 30 min. […] The formula used to calculate the percent enzyme inhibition is:% Enzyme inhibition = [(As − An) ÷ (Ab − An] × 100
As = sample’s absorbance; An = negative’s absorbance; Ab = blank’s absorbance

[2] = test system: carrageenan-induced paw edema; test: Carrageenan-induced paw edema (in vivo anti-inflammatory activity); set-up: species or system BALB/C albino mice; unit not given beside the values; settings: 10 mg/kg, mice, n = 5
Procedure: At 7–8 weeks old, male BALB/C albino mice (29–35 g), were purchased from The National Institute of Health (NIH), Islamabad, Pakistan. Five animals were housed per group and placed in a controlled temperature and humidity-controlled room (22 °C and 66 ± 5%, respectively) in a 12 h light–dark cycle and provided with water and food ad libitum. Ethical approval was taken from the bio-ethical committee of Quaid-I-Azam University (Approval No. BEC-FBS-QAU2018-119) and all protocols were conducted following the Ethical Guide to the Code of Practice for the Housing and Care of Animals Act 1986 (ARRIVE (Animal Research: Reporting In Vivo Experiments) guidelines). The anti-inflammatory activity of the synthesized compounds was evaluated by using the carrageenan-induced rat paw edema assay. To determine the dose response of tetrahydroquinoline derivatives, animals were first given a dose of 0.1, 1 and 10 mg/kg against 100 µL carrageenan (1% solution in normal saline)/paw. Treatment was given 60 min before carrageenan injection. Readings were taken at 4 h post carrageenan injection. The in vivo anti-inflammatory activity was performed following the procedure described by Koksal, et al. in 2017. Paw edema was induced by injecting 100 µL of 1% sterile carrageenan solution into the right hind paw of mice. Synthesized compounds (10 mg/kg), vehicle (saline with 2% DMSO) and drug (acetylsalicylic acid, ASA 10 mg/kg) were administered to the mice orally by gastric intubation 60 min before injecting carrageenan into the right hind paw. The decrease in edema was measured by vernier calipers every 2 h.

[3] = DPPH free radical scavenging assay; settings: mean ± SEM, n = 3; for IC50 (DPPH radical scavenging): concentration to scavenge 50% of the DPPH radicals
Procedure: The % free radical scavenging activity (%FRSA) of the synthetic compounds was evaluated by the discoloration of an unstable DPPH reagent to the stable yellow-colored 2,2-diphenyl-1-picrylhydrazine molecule by accepting one electron from a donor antioxidant; the mechanism is shown in Scheme 2.
The % FRSA (free radical scavenging activity) of the synthetic compounds was determined by using the method of Tai et al. with slight modifications. The antioxidant potential was determined by detecting the capacity of the synthetic compounds to quench the DPPH free radicals. The synthetic compounds were taken in a 96-well plate at three-fold concentrations of 200 µg/mL, 66.6 µg/mL, 22.2 µg/mL and 7.4 µg/mL. DPPH free radicals were added to entire wells to make up the volume up to 200 µL. DMSO and ascorbic acid were taken as negative and positive controls, respectively. The absorbance was taken at 630nm using a microplate reader (ELx800 BioTek). The percentage of scavenging activity was calculated by the given formula:% scavenging activity = (1 − Abs/Abc) × 100
Abs = sample’s absorbance; Abc = control’s absorbance.

[4] = test system: NO generated by LPS-induced macrophages; test: Nitric oxide assay (Griess) in LPS-induced macrophages; assay type: cell-based, murine; settings: for activity at 1 µM / activity at 10 µM / activity at 50 µM / activity at 100 µM: 18 h, LPS 1 µg/mL, read-out: % NO Production (Mean ± SEM)
Procedure: A Griess reagent, a spectrophotometric determination of nitrite level, was carried out to measure the nitrite level in the conditioned medium of macrophages treated with lipopolysaccharide (LPS). Sodium nitrite (NaNO2) was used as a standard compound for the standard curve (Figure 8). The NO concentrations were obtained using the standard curve equation: y = 0.0083x + 0.0017, R^2 = 0.9999, where y is the absorbance at 540 nm and x is the NO concentration in µM. The inhibitory activity of the tested compounds towards NO generated by LPS-induced macrophages was obtained from the calculated value of x.
The anti-inflammatory effect of the synthesized compounds in murine macrophages was evaluated by using the Griess reaction method, described previously. In brief, 1 × 10^6 were plated in a 96-well plate and incubated in a 5% CO2 incubator at 37 °C for 24 h, pre-treated with different concentrations (100 µM, 50 µM, 10 µM and 1 µM) of synthetic compounds for another 2 h and challenged with LPS (1 µg/mL) for an additional 18 h. Equal volumes of Griess reagent (1% sulphanilamide in 50% phosphoric acid and 0.1% naphthyl ethylenediamine dihydrochloride in distilled water and vortexed) and culture medium were mixed and the absorbance was taken at 540 nm. Lipopolysaccharide (LPS) was taken as a blank and piroxicam was taken as a positive control. A t-test was applied to determine the significance of the results.

brine shrimp nauplii = test: Brine shrimp lethality bioassay; assay type: in vivo; settings: 24 h, n = 3
Procedure: Brine shrimp eggs were hatched in a shallow rectangular plastic dish and filled with artificial seawater, which was prepared with a commercial salt mixture. In a 96-well plate, 150 µL of artificial seawater was added and 10 nauplii were added into this. Test compounds (400, 200, 100 and 50 µg/mL) were added into each well and the final volume was made up by adding the artificial seawater. The well plate was left uncovered under a lamp. The number of surviving shrimps were counted and recorded after 24 h. The test was repeated in triplicate. […] The percentage mortality (%M) was also calculated by dividing the number of dead nauplii by the total number and then multiplied by 100.

[5] = 0 h after carrageenan injection
[6] = 2 h after carrageenan injection
[7] = 4 h after carrageenan injection
[8] = 6 h after carrageenan injection
[9] = Mus musculus, Macrophage, 50 µM

| Compound | viability at 24 h, 1 µM [1] | viability at 24 h, 10 µM [1] | viability at 24 h, 50 µM [1] | viability at 24 h, 100 µM [1] | IC50 at 24 h [1] | % inhibition of α-amylase enzyme (α-amylase enzyme) | Paw thickness [2, 5] | Paw thickness [2, 6] | Paw thickness [2, 7] | Paw thickness [2, 8] | % DPPH Scavenging Activity ([3]; 7.4 µg/mL) | % DPPH Scavenging Activity ([3]; 22.22 µg/mL) | % DPPH Scavenging Activity ([3]; 66.66 µg/mL) | % DPPH Scavenging Activity ([3]; 200 µg/mL) | IC50 (DPPH radical scavenging) [3] | activity at 1 µM ([4]; Mus musculus, Macrophage, 1 µM) | activity at 10 µM ([4]; Mus musculus, Macrophage) | activity at 50 µM [4, 9] | activity at 100 µM ([4]; Mus musculus, Macrophage) | LD50 ± SEM (brine shrimp lethality) (brine shrimp nauplii) | further results |
| --- | --- | --- | --- | --- | --- | --- | --- | --- | --- | --- | --- | --- | --- | --- | --- | --- | --- | --- | --- | --- | --- |
| c1ccc2c(c1)CCCN2CN1CCOCC1 [SF2, 4-((3,4-Dihydroquinolin—1(2H)-yl)methyl) morpholine] | 76 ± 0.46% | 70 ± 0.91% | 60 ± 0.91% | 50 ± 1.52% | 26.8 ± 0.3 µM | 79.97% | 2.05 ± 0.05 | 2.11 ± 0.06 | 2.17 ± 0.03 | 2.23 ± 0.07 | 17.44 ± 0.26% | 36.61 ± 0.22% | 58.39 ± 0.27% | 71.85 ± 0.27% | 42.55 ± 0.36 µg/mL (≈ 183 µM) | 32.2 ± 0.46% | 27.1 ± 0.36% | 22.1 ± 0.33% | 15.3 ± 0.29% | 141.4 ± 2.1 µg/mL | – |
| c1ccc2c(c1)CCCN2CN1CCCC1 [SF3, 1-(Pyrollidin-1-ylmethyl) -1,2,3,4-tetrahydroquinoline] | 83 ± 0.63% | 78 ± 0.74% | 72 ± 1.34% | 41 ± 1.07% | 29.1 ± 0.5 µM | – | 2.05 ± 0.06 | 2.16 ± 0.05 | 2.22 ± 0.02 | 2.28 ± 0.07 | 3.76 ± 0.125% | 9.85 ± 0.18% | 18.32 ± 0.91% | 27.19 ± 0.31% | 52.75 ± 0.28 µg/mL (≈ 244 µM) | 33.2 ± 0.47% | 29.6 ± 0.42% | 23.8 ± 0.39% | 19.7 ± 0.37% | 102 ± 1.98 µg/mL | – |
| CC(=O)N(CN1CCCc2ccccc21)c1ccc(O)cc1 [SF13, N-((3,4-dihydroquinolin-1(2H)-yl)methyl)-N-(4-hydroxyphenyl) acetamide] | 85 ± 0.93% | 82 ± 0.66% | 73 ± 1.01% | 60 ± 1.24% | 41.4 ± 0.69 µM | 10.51% | 2.04 ± 0.07 | 2.18 ± 0.03 | 2.26 ± 0.06 | 2.31 ± 0.07 | 1.98 ± 0.20% | 4.44 ± 0.18% | 11.78 ± 0.15 s % | 19.34 ± 0.34% | – | 25.1 ± 0.59% | 22.2 ± 0.52% | 15.6 ± 0.47% | 14.5 ± 0.44% | 204 ± 1.67 µg/mL | NO level scavenged (maximum) ([4]; 50 µM): 85%; inhibition at 1 µM ([4]; Mus musculus, Macrophage, 1 µM, read-out: NO maximum inhibition): 75% |
